Measured values published in US20240279220A1, “INDOLE COMPOUNDS AND METHODS OF USE” (Genzyme Corporation, priority 2021, published 2024).

How the values were obtained:
CFTR = target: T1, CFTR (Homo sapiens, UniProt P13569, DEL508-508); assay: TECC24 recording of CFTR-mediated transepithelial chloride transport in ΔF508 homozygous CF-HBE cells; format: cell-based; conditions: 10 μM test agent, 48 hours incubation, AUC of forskolin-stimulated IEQ divided by vehicle AUC, primary CF-HBE cells
T1 construct: Primary human bronchial epithelial cells from a ΔF508 homozygous CF donor; host or cells: primary human bronchial epithelial cells (CF-HBE), ΔF508 homozygous donor
Method in brief: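 ΔF508 homozygous primary bronchial epithelia exposed to compound 48 h at 36.5 °C, then transepithelial voltage and resistance recorded in pH 7.4 buffer with benzamil (10 μM), forskolin (10 μM) stimulation and CFTRinh-172 (20 μM) stop. Equivalent Cl⁻ current AUC vs vehicle gives efficacy; EC50 fitted with Hill slope fixed at 1.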

NBD1/3D = assay: Aggregation analysis using differential static light scattering (DSLS), NBD1 thermal stability; format: binding, Human; conditions: ΔTagg versus DMSO control; compound at 100 μM
Method in brief: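 Thermal stabilisation reported as ΔTagg, i.e. aggregation temperature relative to averaged DMSO wells. Tagg came from the inflection of differential static light scattering imaged 25–70 °C while NBD1 (0.2 mg/ml, Tris pH 7.6 buffer containing ATP, MgCl2, DTT, glycerol) was ramped 1 °C/min.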

T1 sequence (P13569 with tags, fused parts or gaps DEL508-508): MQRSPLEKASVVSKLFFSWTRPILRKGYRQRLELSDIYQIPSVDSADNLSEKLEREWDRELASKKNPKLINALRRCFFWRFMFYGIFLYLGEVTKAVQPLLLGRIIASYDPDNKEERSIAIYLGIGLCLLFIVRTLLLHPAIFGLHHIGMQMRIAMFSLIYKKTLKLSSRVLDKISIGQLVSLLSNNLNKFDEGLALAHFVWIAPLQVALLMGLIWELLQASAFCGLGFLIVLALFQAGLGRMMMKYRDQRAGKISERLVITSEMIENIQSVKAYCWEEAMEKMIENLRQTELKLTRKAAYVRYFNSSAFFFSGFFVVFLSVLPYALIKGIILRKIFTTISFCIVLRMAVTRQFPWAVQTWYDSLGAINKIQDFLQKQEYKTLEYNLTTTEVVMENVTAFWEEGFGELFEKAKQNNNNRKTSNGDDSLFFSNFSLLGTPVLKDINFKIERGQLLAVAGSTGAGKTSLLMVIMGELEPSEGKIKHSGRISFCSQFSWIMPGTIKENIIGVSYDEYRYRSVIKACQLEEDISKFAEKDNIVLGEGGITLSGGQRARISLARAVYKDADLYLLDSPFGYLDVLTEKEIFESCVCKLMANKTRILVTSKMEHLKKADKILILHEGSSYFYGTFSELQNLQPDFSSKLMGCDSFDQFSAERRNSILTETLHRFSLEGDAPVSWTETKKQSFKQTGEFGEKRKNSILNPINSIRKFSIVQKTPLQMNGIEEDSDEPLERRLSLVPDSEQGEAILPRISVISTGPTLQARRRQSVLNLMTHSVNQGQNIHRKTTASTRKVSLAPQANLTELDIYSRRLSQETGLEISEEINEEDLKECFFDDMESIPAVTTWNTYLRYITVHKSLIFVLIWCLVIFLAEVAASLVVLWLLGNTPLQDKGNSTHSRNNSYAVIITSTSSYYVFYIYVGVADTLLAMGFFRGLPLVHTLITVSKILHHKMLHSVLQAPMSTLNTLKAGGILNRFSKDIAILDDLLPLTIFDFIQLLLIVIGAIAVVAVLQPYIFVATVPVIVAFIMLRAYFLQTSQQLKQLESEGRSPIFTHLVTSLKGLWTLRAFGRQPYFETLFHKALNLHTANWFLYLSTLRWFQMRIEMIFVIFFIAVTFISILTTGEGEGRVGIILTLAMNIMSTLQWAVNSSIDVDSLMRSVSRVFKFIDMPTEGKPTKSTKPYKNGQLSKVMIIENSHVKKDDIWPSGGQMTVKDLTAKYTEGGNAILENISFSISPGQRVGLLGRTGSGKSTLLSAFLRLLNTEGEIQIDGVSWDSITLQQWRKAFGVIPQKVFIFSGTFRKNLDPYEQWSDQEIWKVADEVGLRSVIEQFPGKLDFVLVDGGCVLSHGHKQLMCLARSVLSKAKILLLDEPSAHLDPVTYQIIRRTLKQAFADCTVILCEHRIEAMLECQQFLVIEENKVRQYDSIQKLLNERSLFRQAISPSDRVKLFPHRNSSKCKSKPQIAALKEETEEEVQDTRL

SMILES | TECC24 @ 10 μM over DMSO (AUC fold over DMSO) (CFTR) | DSLS NBD1/3D Human Stability delta-T (° C.) @ 100 (μM) (NBD1/3D)
O=C(O)CCc1cccc(Cc2cnc(-c3cc(Oc4c(F)c(F)c5[nH]ccc5c4F)ccc3F)[nH]2)c1 [Example 123, 3-(3-((2-(2-fluoro-5-((4,6,7-trifluoro-1H-indol-5-yl)oxy)phenyl)-1H-imidazol-5-yl)methyl)phenyl)propanoic acid] | B (“B” refers to AUC @10 uM between 4-12) | B (B: 5-10° C.)
O=C(O)CCc1cc(F)cc(Cc2cnc(-c3cc(Oc4c(F)cc5[nH]ccc5c4F)ccc3F)[nH]2)c1F [Example 124, 3-(3-((2-(5-((4,6-difluoro-1H-indol-5-yl)oxy)-2-fluorophenyl)-1H-imidazol-5-yl)methyl)-2,5-difluorophenyl)propanoic acid] | B (“B” refers to AUC @10 uM between 4-12) | B (B: 5-10° C.)
O=C(O)CCc1cccc(Cc2cnc(-c3cc(Oc4c(F)cc5[nH]ccc5c4CC4CCCS4(=O)=O)ccc3F)[nH]2)c1F (stereo not shown) [Example 125, 3-(3-((2-(5-((4-((1,1-dioxidotetrahydrothiophen-2-yl)methyl)-6-fluoro-1H-indol-5-yl)oxy)-2-fluorophenyl)-1H-imidazol-5-yl)methyl)-2-fluorophenyl)propanoic acid] | A (“A” refers to AUC @10 uM >= 12) | A (A: T ≥ 10° C.)
CS(=O)(=O)CCc1c(Oc2ccc(F)c(-c3ncc(Cc4cccc(CCC(=O)O)c4F)[nH]3)c2)c(F)cc2[nH]ccc12 [Example 126, 3-(2-fluoro-3-((2-(2-fluoro-5-((6-fluoro-4-(2-(methylsulfonyl)ethyl)-1H-indol-5-yl)oxy)phenyl)-1H-imidazol-5-yl)methyl)phenyl)propanoic acid] | B (“B” refers to AUC @10 uM between 4-12) | A (A: T ≥ 10° C.)
CNC(=O)c1c(Oc2ccc(F)c(-c3ncc(Cc4cccc(CCC(=O)O)c4)[nH]3)c2)c(F)cc2[nH]ccc12 [Example 140, 3-(3-((2-(2-Fluoro-5-((6-fluoro-4-(methylcarbamoyl)-1H-indol-5-yl)oxy)phenyl)-1H-imidazol-5-yl)methyl)phenyl)propanoic acid] | C (“C” refers to AUC @ 10 uM <= 4) | B (B: 5-10° C.)
CCC(CC)(c1cccc(CCC(=O)O)c1)c1cnc(-c2cc(Oc3c(F)cc4[nH]ccc4c3C)ccc2F)[nH]1 [Example 159, 3-(3-(3-(2-(2-fluoro-5-((6-fluoro-4-methyl-1H-indol-5-yl)oxy)phenyl)-1H-imidazol-5-yl)pentan-3-yl)phenyl)propanoic acid] | B (“B” refers to AUC @10 uM between 4-12) | B (B: 5-10° C.)
O=C(O)CCc1cccc(C2(c3cnc(-c4cc(Oc5c(F)c(F)c6[nH]ccc6c5F)ccc4F)[nH]3)CCOCC2)c1 [Example 167, 3-(3-(4-(2-(2-fluoro-5-((4,6,7-trifluoro-1H-indol-5-yl)oxy)phenyl)-1H-imidazol-4-yl)tetrahydro-2H-pyran-4-yl)phenyl)propanoic acid] | C (“C” refers to AUC @ 10 uM <= 4) | A (A: T ≥ 10° C.)
O=C(O)CCc1cccc(C2(c3cnc(-c4cc(Oc5c(F)cc6[nH]ccc6c5F)ccc4F)[nH]3)CCN(CC(F)(F)F)CC2)c1 [Example 169, 3-(3-(4-(2-(5-((4,6-difluoro-1H-indol-5-yl)oxy)-2-fluorophenyl)-1H-imidazol-5-yl)-1-(2,2,2-trifluoroethyl)piperidin-4-yl)phenyl)propanoic acid] | C (“C” refers to AUC @ 10 uM <= 4) | B (B: 5-10° C.)
O=C(O)CCc1cccc(C2(c3cnc(-c4cc(Oc5c(F)cc6[nH]ccc6c5CC(F)(F)F)ccc4F)[nH]3)CCS(=O)(=O)CC2)c1 [Example 170, 3-(3-(4-(2-(2-fluoro-5-((6-fluoro-4-(2,2,2-trifluoroethyl)-1H-indol-5-yl)oxy)phenyl)-1H-imidazol-5-yl)-1,1-dioxidotetrahydro-2H-thiopyran-4-yl)phenyl)propanoic acid] | C (“C” refers to AUC @ 10 uM <= 4) | B (B: 5-10° C.)
COCC(COC)(c1cccc(CCC(=O)O)c1)c1cnc(-c2cc(Oc3c(F)cc4[nH]ccc4c3F)ccc2F)[nH]1 [Example 171, 3-(3-(2-(2-(5-((4,6-Difluoro-1H-indol-5-yl)oxy)-2-fluorophenyl)-1H-imidazol-5-yl)-1,3-dimethoxypropan-2-yl)phenyl)propanoic acid] | C (“C” refers to AUC @ 10 uM <= 4) | A (A: T ≥ 10° C.)
CC(O)(c1cccc(CCC(=O)O)c1)c1c[nH]c(-c2cc(C(=O)c3ccc4[nH]ccc4c3)ccc2F)n1 (stereo not shown) [Example 194, 3-(3-(1-(2-(2-fluoro-5-(1H-indole-5-carbonyl)phenyl)-1H-imidazol-4-yl)-1-hydroxyethyl)phenyl) propanoic acid] | C (“C” refers to AUC @ 10 uM <= 4) | B (B: 5-10° C.)
CC(O)(c1cccc(CCC(=O)O)c1)c1cnc(-c2cc(Oc3c(F)c(F)c4[nH]ccc4c3C3CC3)ccc2F)[nH]1 (stereo not shown) [Example 205, 3-(3-(1-(2-(5-((4-cyclopropyl-6,7-difluoro-1H-indol-5-yl)oxy)-2-fluorophenyl)-1H-imidazol-5-yl)-1-hydroxyethyl)phenyl) propanoic acid] | B (“B” refers to AUC @10 uM between 4-12) | B (B: 5-10° C.)
Cc1c(Oc2cc(-c3ncc(C(C)(O)c4cccc(CCC(=O)O)c4)[nH]3)c(F)cc2F)c(F)cc2[nH]ccc12 (stereo not shown) [Example 206, 3-(3-(1-(2-(2,4-difluoro-5-((6-fluoro-4-methyl-1H-indol-5-yl)oxy)phenyl)-1H-imidazol-5-yl)-1-hydroxyethyl)phenyl) propanoic acid] | C (“C” refers to AUC @ 10 uM <= 4) | B (B: 5-10° C.)
CNC(c1cccc(CCC(=O)O)c1)c1cnc(-c2cccc(Oc3c(F)cc4[nH]ccc4c3F)c2)[nH]1 (stereo not shown) [Example 266, 3-(3-((2-(3-((4,6-Difluoro-1H-indol-5-yl)oxy)phenyl)-1H-imidazol-5-yl)(methylamino)methyl)phenyl)propanoic acid] | C (“C” refers to AUC @ 10 uM <= 4) | A (A: T ≥ 10° C.)
O=C(O)CCc1cccc(Cc2c[nH]c(-c3cc(Oc4c(F)cc5c(ccn5P(=O)(O)O)c4F)ccc3F)n2)c1F [Example 270, 3-(3-((2-(5-((4,6-Difluoro-1-phosphono-1H-indol-5-yl)oxy)-2-fluorophenyl)-1H-imidazol-4-yl)methyl)-2-fluorophenyl)propanoic acid] | C (“C” refers to AUC @ 10 uM <= 4) | C (C: ≤5° C.)
Cc1c(Oc2ccc(F)c(-c3ncc(C(C)(O)c4cccc(CCC(=O)O)n4)[nH]3)c2)c(F)cc2[nH]ccc12 (stereo not shown) [Example 272, 3-(6-(1-(2-(2-fluoro-5-((6-fluoro-4-methyl-1H-indol-5-yl)oxy)phenyl)-1H-imidazol-5-yl)-1-hydroxyethyl)pyridin-2-yl)propanoic acid] | B (“B” refers to AUC @10 uM between 4-12) | B (B: 5-10° C.)
O=C(O)CCc1cccc(C(O)(c2cnc(-c3cc(Oc4c(F)cc5[nH]ccc5c4F)ccc3F)[nH]2)C(F)(F)F)c1 (stereo not shown) [Example 273, 3-(3-(1-(2-(5-((4,6-difluoro-1H-indol-5-yl)oxy)-2-fluorophenyl)-1H-imidazol-5-yl)-2,2,2-trifluoro-1-hydroxyethyl)phenyl)propanoic acid] | C (“C” refers to AUC @ 10 uM <= 4) | B (B: 5-10° C.)
CC(c1cccc(CCC(=O)O)c1)(c1cnc(-c2cc(Oc3c(F)cc4[nH]ccc4c3S(C)(=O)=O)ccc2F)[nH]1)C(F)F (stereo not shown) [Example 276, 3-(3-(1,1-Difluoro-2-(2-(2-fluoro-5-((6-fluoro-4-(methylsulfonyl)-1H-indol-5-yl)oxy)phenyl)-1H-imidazol-5-yl)propan-2-yl)phenyl)propanoic acid] | C (“C” refers to AUC @ 10 uM <= 4) | A (A: T ≥ 10° C.)
CC(C)(C)C(c1cccc(CCC(=O)O)c1)c1cnc(-c2cc(Oc3c(F)cc4[nH]ccc4c3F)ccc2F)[nH]1 (stereo not shown) [Example 277, 3-(3-(1-(2-(5-((4,6-difluoro-1H-indol-5-yl)oxy)-2-fluorophenyl)-1H-imidazol-5-yl)-2,2-dimethylpropyl)phenyl)propanoic acid] | A (“A” refers to AUC @10 uM >= 12) | B (B: 5-10° C.)
CS(=O)(=O)Cc1c(Oc2ccc(F)c(-c3ncc(Cc4cccc(CCC(=O)O)c4F)[nH]3)c2)c(F)cc2[nH]ccc12 [Example 279, 3-(2-Fluoro-3-((2-(2-fluoro-5-((6-fluoro-4-((methylsulfonyl)methyl)-1H-indol-5-yl)oxy)phenyl)-1H-imidazol-5-yl)methyl)phenyl)propanoic acid] | A (“A” refers to AUC @10 uM >= 12) | A (A: T ≥ 10° C.)
